From patent publication US10912756B2, “Method for the treatment of human melanoma” (UNIWERSYTET JAGIELLONSKI, priority 2017, dated 2021)
Values after ≈ are worked out from the molar mass of the structure shown.

Columns and labels:
ovarian cancer = details: cited from earlier work
breast cancer = details: cited from earlier work
lung cancer = details: cited from earlier work
[1] = system: A375P human melanoma cells; test: GSH/GSSG glutathione content and cell count (toxicity), RP-HPLC; assay type: cell-based; details: Docetaxel 0.5 μM, statin 20 μM
Description: (§1) Toxicities of the applied drugs were tested by a measurement of reduced and oxidised glutathione GSH/GSSG contents in the human melanoma cells. The glutathione contents were analysed by RP-HPLC. A method from prior art [references 1-4] was used.
(§2) The applied method consists in a reaction of GSH and GSSG with N-dinitrofluorobenzene, yielding N,S-dinitro-derivatives in the case of GSH and N,N-dinitro-derivatives in the case of GSSG. The elutions were carried out in a water-acetonitrile system, in accordance to the increasing acetonitrile concentration.
(§3) Determination of the levels of reduced glutathione, oxidised glutathione, and total glutathione were carried out using an RP-HPLC system from Shimadzu (SPD-M10VP photodiode matrix detector, class VP 7.2 software). The separations were carried out at a temperature of 20° C. using a Luna 5u C18 (Z) column (250 mm×4.6 mm, from Phenomenex), with a guard column with the same packing. Grade solvents were used as the eluant in the separations: acetonitrile/0.1% TFA and H2O/0.1% TFA. The separation was obtained in gradient elution, under a non-linear increase in the acetonitrile concentration from 20% to 100% during 90 minutes, at a flow of 1.0 ml/min. Samples with a volume of 20 μl were introduced into the column, filtered earlier using PTFE filters with a pore diameter of 0.2 μm (Supelco). The analysis of the compounds was carried out with UV-VIS detection at 365 nm. The cells were suspended in a 70% PCA/1 mM BPDS/0.9% NaCl solution in a 1:3 ratio, sonicated for 3×5 seconds (Bandelin SonoplusGM70) at a temperature of 4° C. and centrifuged under 1400 g at a temperature of 4° C. for 10 minutes. The prepared supernatant was used for the assays.
(§4) For identification of the tested compounds, proper standard solutions were used: GSH and GSSG.
(§5) All standard solutions were prepared in 10% PCA/1 mM BPDS, in redistilled water.
(§6) To determine the GSH and GSSG levels, calibration curves were used, prepared for standard solutions in the concentration range of 13 to 75 nmol/ml of the corresponding cell homogenate. The incubation mixture contained, respectively: supernatant originating from the cells, N-methyl-L-lysine (internal standard), 10% PCA/1 mM BPDS, 2 M KOH-2.4 M KHCO3 and 1% DNFB.
(§7) In the case of the calibration curve, the incubation mixture was prepared in an analogous way, but various volumes of standard solutions were added, and the final volume was controlled by the amount of the 10% PCA/1 mM BPDS added. After 24 h derivatization at room temperature, in darkness, the samples were acidified by adding 70% PCA and centrifuged for 2 minutes under 5600 g. The obtained supernatant was filtered through a PTFE-Supelco filter, introduced into the column, and 90-minute separation of the analysed compounds was carried out. The chromatograms were worked out identifying the compounds being separated according to their retention times, based on the standards available, and totalising the surface areas of the chromatographic peaks in the ranges of selected retention times.
(§8) Toxicities of the applied drugs were tested by a measurement of GSH/GSSG contents in the human melanoma cells. The glutathione contents were analysed by HPLC. A method drawn from the papers by [Bronowicka, Wróbel, Dominik] was used, described in detail in Example 2.

[2] = system: WM239A human melanoma cells; test: as above; assay type: cell-based; details: Docetaxel 0.5 μM, statin 20 μM
Description: as §1, §2, §3, §4, §5, §6, §7, §8

[3] = system: WM35 human melanoma cells; test: as above; assay type: cell-based; details: Docetaxel 0.5 μM, statin 20 μM
Description: as §1, §2, §3, §4, §5, §6, §7, §8

[4] = system: A375P human melanoma cells; test: Taxol take-up into cells, HPLC; assay type: cell-based
Description: (§9) The tests were carried out using cell lines of human melanoma originating from three stages of development: WM35 of the radial growth phase, WM239A metastatic line and A375P metastasis to lungs, malignant line. For every measuring point, cells were grown in 4 100 mm coming dishes for each separate cell line. […] The analyses were repeated thrice in independent experiments, obtaining similar results. The results were averaged and reported in μM per a million of cells. The cells were counted using a Countess Invitrogen™ counter.
(§10) For determination of the amount of drug absorbed by the melanoma cells, chromatographic method was used. An HPLC system (Shimadzu Corporation Japan) consisting of two LC 10AT vp high-pressure pumps, a DGU-14A degasser, a CTO-10 ASvp oven for the column thermostating, an SIL-10 ADvp automatic sample feeder, and an SPD-M10 Avp diode detector, was used for the measurements. CLASS-VP 7.2.1 software was used.
(§11) The samples were separated on a Phenomenex Gemini −Nx 5μ C18 (4.6×150 mm i.d) column+guard column from Phenomenex (4×3 mm i.d.) with identical packing, at a temperature of 20° C. Eluant with the following composition: solvent A (water+0.1% trifluoroacetic acid [TFA]) and solvent B (acetonitrile 0.1% TFA) was used. The sample was separated in the following gradient system: 20% of solvent B to 30% of solvent B linearly for 15 min, next linearly to 34% for 6 min, linearly to 100% of solvent B for 24 min consecutively, then 10 min isocratically at 100% of solvent B. The column was recalibrated for […] in 20% of solvent B. 20-μl samples were introduced at a flowrate of 1.0 ml/min during 65 min with a UV-Vis detection at 220 nm.
(§12) The results were validated in two steps, by comparing the obtained Rt values to Rt values of standards, and by analysis of spectra of the separated compound and their comparison with spectra of the standards.
(§13) A frozen dry pellet was flushed with 650 μl of a solution (2/1 isopropanol, methanol+10% acetonitrile), then sonicated 3×15 s and frozen for 24 h. After thawing, the sample was shaken lightly for 30 min, 200 μl of physiological saline and 1083 μl of chloroform were added, stirring vigorously for 3×4 min. Separation of the organic phase from the aqueous phase was carried out by centrifugation at 10,000 revolutions/10 min. The collected chloroform phase were subjected to concentration under partial vacuum in a concentrator at 4° C., and to second drying under argon atmosphere. The precipitate was dissolved in 100 μl of methanol and separated by HPLC.
(§14) The tests were carried out using methods described in detail in Example 3.

[5] = system: WM239A human melanoma cells; test: Taxol take-up into cells, HPLC; assay type: cell-based
Description: as §9, §10, §11, §12, §13, §14

[6] = system: WM35 human melanoma cells; test: Taxol take-up into cells, HPLC; assay type: cell-based
Description: as §9, §10, §11, §12, §13, §14

[7] = system: human melanoma cells (WM35, WM239A, A375P); test: "crystal violet" proliferation assay; assay type: cell-based; details: statin 50-12.5 μM with docetaxel regimen at constant 0.5 μM
Description: The tests were carried out using cell lines of human melanoma originating from three stages of development: WM35 of the radial growth phase, WM239A metastatic line and A375P metastasis to lungs, malignant line.
The following statins were used in the studies: atorvastatin, fluvastatin, rosuvastatin, and pravastatin. The tests were carried out using cell lines of human melanoma originating from invasive stages of development: WM239A metastatic line and A375P P-metastasis to lungs, malignant line. […] Methodology according to that described in Example 1 was used. Additionally, the toxicity was analysed by investigations of reduced and oxidised glutathione contents. HPLC method was used.

human melanoma cells [8] = test: Taxol take-up into cells, HPLC (conclusions over the lines); assay type: cell-based; details: for effect on take-up of taxanes into human melanoma cells: statin with docetaxel
[9] = cited from earlier work
human melanoma cells [10] = test: GSH/GSSG toxicity (conclusions over the lines); assay type: cell-based; details: GSH/GSSG contents; statin 20 μM with Docetaxel 0.5 μM
Description: as §1, §2
Determination of the levels of reduced glutathione, oxidised glutathione, and total glutathione were carried out using an RP-HPLC system from Shimadzu (SPD-M10VP photodiode matrix detector, class VP 7.2 software). The separations were carried out at a temperature of 20° C. using a Luna 5u C18 (Z) column (250 mm×4.6 mm, from Phenomenex), with a guard column with the same packing. Grade solvents were used as the eluant in the separations: acetonitrile/0.1% TFA and H2O/0.1% TFA. The separation was obtained in gradient elution, under a non-linear increase in the acetonitrile concentration from 20% to 100% during 90 minutes, at a flow of 1.0 ml/min. […]
Toxicities of the applied drugs were tested by a measurement of GSH/GSSG contents in the human melanoma cells. The glutathione contents were analysed by HPLC. […]

[11] = water/n-octanol; cited from earlier work
human fibroblast cells = test: "crystal violet" proliferation assay; details: simvastatin in various concentrations with TCM regimen
[12] = cell count 22.5 mln, in the presence of various statins
[13] = relative to Docetaxel (T) = 100
[14] = cell count 34.2 mln, in the presence of various statins
[15] = WM 35, cell count 35.4 mln, in the presence of various statins

For `CC(=O)O[C@H]1C(=O)[C@@]2(C)[C@H]([C@H](OC(=O)c3ccccc3)[C@]3(O)C[C@H](OC(=O)[C@H](O)[C@@H](NC(=O)c4ccccc4)c4ccccc4)C(C)=C1C3(C)C)[C@]1(OC(C)=O)CO[C@@H]1C[C@@H]2O` [Paclitaxel, paclitaxel], the efficiency in treatment (ovarian cancer) is given as 30%, the efficiency in treatment (breast cancer) is given as 50% and the efficiency in treatment (lung cancer) is given as 20%.

For `CC(=O)O[C@@]12CO[C@@H]1C[C@H](O)[C@@]1(C)C(=O)[C@H](O)C3=C(C)[C@@H](OC(=O)[C@H](O)[C@@H](NC(=O)OC(C)(C)C)c4ccccc4)C[C@@](O)([C@@H](OC(=O)c4ccccc4)[C@H]21)C3(C)C` [T, Docetaxel], the GSH ([1]; 48 h) was 0.94 nmol/million of cells, the GSH/GSSG ([1]; 48 h) was 6.78 and the GSSG ([1]; 48 h) was 0.14 nmol/million of cells. The Total glutathione ([1]; 48 h) was 1.22 nmol/million of cells, the “Cell count after 48 h” value ([1]; initial count 5.9 mln) was 11.1 mln and the GSH ([2]; 48 h) was 1.07 nmol/million of cells. The GSH/GSSG ([2]; 48 h) was 6.53, the GSSG ([2]; 48 h) was 0.16 nmol/million of cells and the Total glutathione ([2]; 48 h) was 1.40 nmol/million of cells. For the same compound, the “Cell count after 48 h” value ([2]; initial count 6.2 mln) was 10.1 mln, the GSH ([3]; 48 h) was 1.12 nmol/million of cells and the GSH/GSSG ([3]; 48 h) was 0.59. The GSSG ([3]; 48 h) was 1.88 nmol/million of cells, the Total glutathione ([3]; 48 h) was 4.8 nmol/million of cells and the “Cell count after 48 h” value ([3]; initial count 7.1 mln) was 10.1 mln. For the same compound, the Taxol concentration [4, 12] was 36 µM, the “Taxol concentration per million of cells” value [4, 12] was 1.60 μM/million of cells and the “% content in cells” value [4, 13] was 100%. The Taxol concentration [5, 14] was 74.8 µM, the “Taxol concentration per million of cells” value [5, 14] was 2.18 μM/million of cells and the “% content in cells” value [5, 13] was 100%. For the same compound, the Taxol concentration [6, 15] was 57.08 µM, the “Taxol concentration per million of cells” value [6, 15] was 1.61 μM/million of cells and the “% content in cells” value ([6]; WM 35, relative to Docetaxel (T) = 100) was 100%.

In the case of `CC(C)c1c(C(=O)Nc2ccccc2)c(-c2ccccc2)c(-c2ccc(F)cc2)n1CC[C@@H](O)C[C@@H](O)CC(=O)O` [atorvastatin], the “increase of Taxol content in melanoma cells, on average” value ([6]; WM35 (radial phase), in relation to the control with Taxol alone) was “two hundred percent”, the “effect on proliferation of human melanoma cells” value [7] was “permanently inhibit synergistically” and the “take-ups higher by” value (human melanoma cells [8]; melanoma cells from more advanced progression phases, vs Taxol alone) was 30-45%. The “effect on take-up of taxanes into human melanoma cells” value (human melanoma cells [8]) was “selectively increases the taxanes take-up into human melanoma cells”.

In the case of `CC(C)n1c(/C=C/C(O)CC(O)CC(=O)O)c(-c2ccc(F)cc2)c2ccccc21` (centres unmarked) [fluvastatin], the solubility in water [9] is given as 0.46 µg/mL (≈ 1.12 µM).

In the case of `CC[C@H](C)C(=O)O[C@H]1C[C@H](O)C=C2C=C[C@H](C)[C@H](CC[C@@H](O)C[C@@H](O)CC(=O)O)[C@H]21` [pravastatin], the “toxicity against human melanoma cells” value (human melanoma cells [10]) is listed as “is not toxic and it does not affect the malignant cells”, the solubility in water [9] is listed as 19000 µg/mL (≈ 44800 µM) and the “Log P” value [11] is listed as 0.59.

In the case of `CC(C)c1nc(N(C)S(C)(=O)=O)nc(-c2ccc(F)cc2)c1/C=C/[C@@H](O)C[C@@H](O)CC(=O)O` [rosuvastatin], the “effect on take-up of taxanes into human melanoma cells” value (human melanoma cells [8]) is listed as “weaker effect” and the solubility in water [9] is listed as 88.6 µg/mL (≈ 184 µM).

With `CCC(C)(C)C(=O)O[C@H]1C[C@@H](C)C=C2C=C[C@H](C)[C@H](CC[C@@H]3C[C@@H](O)CC(=O)O3)[C@H]21` [simvastatin] the “effect on proliferation of normal cells” value (human fibroblast cells) was “does not affect the normal cells of human skin such as fibroblasts”.
